According to ChEMBL document CHEMBL3885861, “Open TG-GATES”:

Species on record: Rattus norvegicus
Experiment: Open TG-GATES - Regimen: Daily Repeat
Format: toxicity, organism-based, Sprague-Dawley
Design: regimen Daily Repeat, gender Male, age 6 weeks
Settings: in vivo, po, route gavage; for APTT / Bas / Eos / Fbg / Hb / Ht / Lym / MCH / MCHC / MCV / Mono / Neu / PT / Plat / RBC / Ret / WBC: tissue Blood; for KIDNEY_L / KIDNEY_R / KIDNEY_TOTAL: tissue Kidney; for LIVER: tissue Liver; for A/G / ALP / ALT / AST / BUN / CRE / Ca / Cl / DBIL / GLC / IP / LDH / Na / PL / RALB / TBIL / TC / TG / TP / gamma-GTP: tissue Plasma
[1] = 0 mg/kg, 72 h, dose level Control, time 3 day
[2] = 0 mg/kg, […], dose level Control, time 7 day
[3] = 0 mg/kg, […], dose level Control, time 14 day
[4] = 0 mg/kg, […], dose level Control, time 28 day
[5] = 100 mg/kg, 72 h, dose level Low, time 3 day
[6] = 100 mg/kg, […], dose level Low, time 7 day
[7] = 100 mg/kg, […], dose level Low, time 14 day
[8] = 100 mg/kg, […], dose level Low, time 28 day

NC(N)=Nc1nc(CSCCC(N)=NS(N)(=O)=O)cs1 [FAMOTIDINE]
TERMINAL_BW [1]: 227 g
APTT [1]: 19.5 s
Bas [1]: 0%
Eos [1]: 1%
Fbg [1]: 221.4 mg/dL
Hb [1]: 13.5 g/dL
Ht [1]: 37.4%
Lym [1]: 73.8%
MCH [1]: 22.4 pg
MCHC [1]: 36.1%
MCV [1]: 61.9 fL
Mono [1]: 3.2%
Neu [1]: 20.6%
PT [1]: 11.8 s
Plat [1]: 125.1 x10_4/uL
RBC [1]: 604.6 x10_4/ul
Ret [1]: 5.7%
WBC [1]: 75.1 x10_2/uL
KIDNEY_L [1]: 1 g
KIDNEY_R [1]: 1 g
KIDNEY_TOTAL [1]: 2 g
LIVER [1]: 10.4 g
A/G [1]: 1.5
ALP [1]: 999.6 IU/L
ALT [1]: 31.4 IU/L
AST [1]: 64.2 IU/L
BUN [1]: 13.8 mg/dL
CRE [1]: 0.4 mg/dL
Ca [1]: 10.7 mg/dL
Cl [1]: 103.2 meq/L
DBIL [1]: 0.086 mg/dL
GLC [1]: 190.6 mg/dL
IP [1]: 7.2 mg/dL
LDH [1]: 194 IU/L
Na [1]: 139.8 meq/L
PL [1]: 139.6 mg/dL
RALB [1]: 3.4 g/dL
TBIL [1]: 0.1 mg/dL
TC [1]: 76.6 mg/dL
TG [1]: 78.4 mg/dL
TP [1]: 5.5 g/dL
gamma-GTP [1]: 1 IU/L
TERMINAL_BW [2]: 257.4 g
TERMINAL_BW [3]: 314.4 g
TERMINAL_BW [4]: 376 g
APTT [2]: 20.1 s
Bas [2]: 0%
Eos [2]: 0.8%
Fbg [2]: 230 mg/dL
Hb [2]: 13.7 g/dL
Ht [2]: 38.3%
Lym [2]: 80.4%
MCH [2]: 22.2 pg
MCHC [2]: 35.8%
MCV [2]: 62 fL
Mono [2]: 2.4%
Neu [2]: 14.8%
PT [2]: 11.8 s
Plat [2]: 126.2 x10_4/uL
RBC [2]: 618.2 x10_4/ul
Ret [2]: 5%
WBC [2]: 82.2 x10_2/uL
APTT [3]: 22.3 s
Bas [3]: 0%
Eos [3]: 1%
Fbg [3]: 229.4 mg/dL
Hb [3]: 14.3 g/dL
Ht [3]: 41.9%
Lym [3]: 81.8%
MCH [3]: 20.8 pg
MCHC [3]: 34.1%
MCV [3]: 60.9 fL
Mono [3]: 1.6%
Neu [3]: 14.2%
PT [3]: 12.3 s
Plat [3]: 118.4 x10_4/uL
RBC [3]: 689 x10_4/ul
Ret [3]: 4.5%
WBC [3]: 112.3 x10_2/uL
APTT [4]: 21.3 s
Bas [4]: 0%
Eos [4]: 1%
Fbg [4]: 233.6 mg/dL
Hb [4]: 15.4 g/dL
Ht [4]: 43.5%
Lym [4]: 80.8%
MCH [4]: 20 pg
MCHC [4]: 35.3%
MCV [4]: 56.6 fL
Mono [4]: 2.2%
Neu [4]: 14.6%
PT [4]: 12.2 s
Plat [4]: 98.4 x10_4/uL
RBC [4]: 769 x10_4/ul
Ret [4]: 2.3%
WBC [4]: 84.1 x10_2/uL
KIDNEY_L [2]: 1.1 g
KIDNEY_R [2]: 1.1 g
KIDNEY_TOTAL [2]: 2.2 g
KIDNEY_L [3]: 1.3 g
KIDNEY_R [3]: 1.2 g
KIDNEY_TOTAL [3]: 2.5 g
KIDNEY_L [4]: 1.4 g
KIDNEY_R [4]: 1.4 g
KIDNEY_TOTAL [4]: 2.8 g
LIVER [2]: 12.2 g
LIVER [3]: 14 g
LIVER [4]: 15.1 g
A/G [2]: 1.5
ALP [2]: 1109 IU/L
ALT [2]: 39.6 IU/L
AST [2]: 71.4 IU/L
BUN [2]: 16.6 mg/dL
CRE [2]: 0.4 mg/dL
Ca [2]: 10.7 mg/dL
Cl [2]: 102.8 meq/L
DBIL [2]: 0.094 mg/dL
GLC [2]: 200.6 mg/dL
IP [2]: 7.5 mg/dL
LDH [2]: 176.2 IU/L
Na [2]: 140.6 meq/L
PL [2]: 156.6 mg/dL
RALB [2]: 3.5 g/dL
TBIL [2]: 0.2 mg/dL
TC [2]: 78 mg/dL
TG [2]: 101.8 mg/dL
TP [2]: 5.7 g/dL
gamma-GTP [2]: 0.8 IU/L
A/G [3]: 1.5
ALP [3]: 794.6 IU/L
ALT [3]: 33.4 IU/L
AST [3]: 62 IU/L
BUN [3]: 15.8 mg/dL
CRE [3]: 0.5 mg/dL
Ca [3]: 10.8 mg/dL
Cl [3]: 103.2 meq/L
DBIL [3]: 0.096 mg/dL
GLC [3]: 208 mg/dL
IP [3]: 7.2 mg/dL
LDH [3]: 153.2 IU/L
Na [3]: 140.4 meq/L
PL [3]: 146.6 mg/dL
RALB [3]: 3.4 g/dL
TBIL [3]: 0.2 mg/dL
TC [3]: 75 mg/dL
TG [3]: 96.4 mg/dL
TP [3]: 5.7 g/dL
gamma-GTP [3]: 1.4 IU/L
A/G [4]: 1.3
ALP [4]: 664.6 IU/L
ALT [4]: 32.4 IU/L
AST [4]: 59 IU/L
BUN [4]: 18.6 mg/dL
CRE [4]: 0.6 mg/dL
Ca [4]: 10.2 mg/dL
Cl [4]: 103.6 meq/L
DBIL [4]: 0.07 mg/dL
GLC [4]: 217.4 mg/dL
IP [4]: 6.7 mg/dL
LDH [4]: 123 IU/L
Na [4]: 141 meq/L
PL [4]: 141.8 mg/dL
RALB [4]: 3.5 g/dL
TBIL [4]: 0.1 mg/dL
TC [4]: 74.6 mg/dL
TG [4]: 82.8 mg/dL
TP [4]: 6.1 g/dL
gamma-GTP [4]: 1 IU/L
TERMINAL_BW [5]: 224.5 g
APTT [5]: 19.8 s
Bas [5]: 0%
Eos [5]: 1%
Fbg [5]: 225.2 mg/dL
Hb [5]: 13.3 g/dL
Ht [5]: 37.3%
Lym [5]: 78.4%
MCH [5]: 22.1 pg
MCHC [5]: 35.6%
MCV [5]: 62.1 fL
Mono [5]: 2.6%
Neu [5]: 15.6%
PT [5]: 12 s
Plat [5]: 124.1 x10_4/uL
RBC [5]: 600.6 x10_4/ul
Ret [5]: 5.7%
WBC [5]: 87.5 x10_2/uL
KIDNEY_L [5]: 1 g
KIDNEY_R [5]: 1 g
KIDNEY_TOTAL [5]: 2 g
LIVER [5]: 10.2 g
A/G [5]: 1.6
ALP [5]: 1126.4 IU/L
ALT [5]: 30.2 IU/L
AST [5]: 63.6 IU/L
BUN [5]: 16.6 mg/dL
CRE [5]: 0.4 mg/dL
Ca [5]: 10.7 mg/dL
Cl [5]: 102.8 meq/L
DBIL [5]: 0.086 mg/dL
GLC [5]: 190.4 mg/dL
IP [5]: 7.2 mg/dL
LDH [5]: 190.6 IU/L
Na [5]: 139 meq/L
PL [5]: 136.8 mg/dL
RALB [5]: 3.3 g/dL
TBIL [5]: 0.1 mg/dL
TC [5]: 73.8 mg/dL
TG [5]: 63.2 mg/dL
TP [5]: 5.5 g/dL
gamma-GTP [5]: 1.2 IU/L
TERMINAL_BW [6]: 259.3 g
TERMINAL_BW [7]: 310.4 g
TERMINAL_BW [8]: 389.2 g
APTT [6]: 20.9 s
Bas [6]: 0%
Eos [6]: 1%
Fbg [6]: 217.6 mg/dL
Hb [6]: 13.5 g/dL
Ht [6]: 37.6%
Lym [6]: 78.6%
MCH [6]: 22 pg
MCHC [6]: 35.9%
MCV [6]: 61.5 fL
Mono [6]: 2.8%
Neu [6]: 16.4%
PT [6]: 12.1 s
Plat [6]: 116.2 x10_4/uL
RBC [6]: 612 x10_4/ul
Ret [6]: 5.2%
WBC [6]: 95.1 x10_2/uL
APTT [7]: 22.2 s
Bas [7]: 0%
Eos [7]: 0.6%
Fbg [7]: 217.4 mg/dL
Hb [7]: 14.4 g/dL
Ht [7]: 41.5%
Lym [7]: 77.4%
MCH [7]: 20.9 pg
MCHC [7]: 34.8%
MCV [7]: 60 fL
Mono [7]: 2.4%
Neu [7]: 17.8%
PT [7]: 12.6 s
Plat [7]: 111.6 x10_4/uL
RBC [7]: 691.8 x10_4/ul
Ret [7]: 4%
WBC [7]: 94.5 x10_2/uL
APTT [8]: 21.5 s
Bas [8]: 0%
Eos [8]: 1.6%
Fbg [8]: 219.4 mg/dL
Hb [8]: 15.5 g/dL
Ht [8]: 43.7%
Lym [8]: 81.2%
MCH [8]: 19.4 pg
MCHC [8]: 35.5%
MCV [8]: 54.9 fL
Mono [8]: 1.6%
Neu [8]: 14.2%
PT [8]: 12.8 s
Plat [8]: 96.6 x10_4/uL
RBC [8]: 796 x10_4/ul
Ret [8]: 2.2%
WBC [8]: 90.2 x10_2/uL
KIDNEY_L [6]: 1.1 g
KIDNEY_R [6]: 1.1 g
KIDNEY_TOTAL [6]: 2.2 g
KIDNEY_L [7]: 1.2 g
KIDNEY_R [7]: 1.2 g
KIDNEY_TOTAL [7]: 2.5 g
KIDNEY_L [8]: 1.3 g
KIDNEY_R [8]: 1.4 g
KIDNEY_TOTAL [8]: 2.7 g
LIVER [6]: 12.4 g
LIVER [7]: 13.4 g
LIVER [8]: 15.7 g
A/G [6]: 1.5
ALP [6]: 940.8 IU/L
ALT [6]: 30.4 IU/L
AST [6]: 67 IU/L
BUN [6]: 16.4 mg/dL
CRE [6]: 0.4 mg/dL
Ca [6]: 10.7 mg/dL
Cl [6]: 103 meq/L
DBIL [6]: 0.098 mg/dL
GLC [6]: 182.8 mg/dL
IP [6]: 7 mg/dL
LDH [6]: 205.2 IU/L
Na [6]: 140.8 meq/L
PL [6]: 151 mg/dL
RALB [6]: 3.4 g/dL
TBIL [6]: 0.2 mg/dL
TC [6]: 78.6 mg/dL
TG [6]: 98.2 mg/dL
TP [6]: 5.6 g/dL
gamma-GTP [6]: 1.2 IU/L
A/G [7]: 1.5
ALP [7]: 918.4 IU/L
ALT [7]: 38 IU/L
AST [7]: 64.4 IU/L
BUN [7]: 15.2 mg/dL
CRE [7]: 0.5 mg/dL
Ca [7]: 10.5 mg/dL
Cl [7]: 104 meq/L
DBIL [7]: 0.096 mg/dL
GLC [7]: 196.2 mg/dL
IP [7]: 7 mg/dL
LDH [7]: 181 IU/L
Na [7]: 140.6 meq/L
PL [7]: 141.2 mg/dL
RALB [7]: 3.3 g/dL
TBIL [7]: 0.2 mg/dL
TC [7]: 67 mg/dL
TG [7]: 111.4 mg/dL
TP [7]: 5.6 g/dL
gamma-GTP [7]: 1.6 IU/L
A/G [8]: 1.3
ALP [8]: 577.4 IU/L
ALT [8]: 31.8 IU/L
AST [8]: 59.6 IU/L
BUN [8]: 15.8 mg/dL
CRE [8]: 0.6 mg/dL
Ca [8]: 9.9 mg/dL
Cl [8]: 103.4 meq/L
DBIL [8]: 0.074 mg/dL
GLC [8]: 241.8 mg/dL
IP [8]: 7.1 mg/dL
LDH [8]: 132.8 IU/L
Na [8]: 140.8 meq/L
PL [8]: 121.2 mg/dL
RALB [8]: 3.3 g/dL
TBIL [8]: 0.1 mg/dL
TC [8]: 57.8 mg/dL
TG [8]: 91 mg/dL
TP [8]: 5.9 g/dL
gamma-GTP [8]: 1.2 IU/L
